Data on 32 compounds can be found in patent US20090111801A1, “SUBSTITUTED PYRAZINONE DERIVATIVES FOR USE AS A MEDICINE” (Janssen Pharmaceutica N.V., priority 2006, published 2009).

One experiment concerns the target T1, 5HT-Transporter (Homo sapiens, UniProt P31645).
T1 construct: Human platelet membranes (Oceanix Biosciences Corporation, Hanover, Md., USA) were thawed; tissue Oceanix Biosciences Corporation, Hanover, Md., USA; host or cells: human platelet membranes
Nature of the experiment: Binding experiment for the 5HT-transporter ([3H]paroxetine, human platelet membranes). Conditions: [3H]paroxetine 0.5 nM; for IC50: read-out: h-5HTT pIC50 (converted). As for the experimental part: (§1) The interaction of a compound of Formula (I) with α2-adrenoceptor receptors was assessed in in vitro radioligand binding experiments. In general, a low concentration of a radioligand with a high binding affinity for a particular receptor or transporter is incubated with a sample of a tissue preparation enriched in a particular receptor or transporter or with a preparation of cells expressing cloned human receptors in a buffered medium. During the incubation, the radioligand binds to the receptor or transporter. When equilibrium of binding is reached, the receptor bound radioactivity is separated from the non-bound radioactivity, and the receptor- or transporter-bound activity is counted. The interaction of the test compounds with the receptor is assessed in competition binding experiments. Various concentrations of the test compound are added to the incubation mixture containing the receptor- or transporter preparation and the radioligand. The test compound in proportion to its binding affinity and its concentration inhibits binding of the radioligand. The radioligand used for hα2A and hα2C receptor binding was [^3H]-raulwolscine.
Human platelet membranes (Oceanix Biosciences Corporation, Hanover, Md., USA) were thawed, diluted in buffer (Tris-HCl 50 mM, 120 mM NaCl and 5 mM KCl) and quickly (max 3 s) homogenised with an Ultraturrax homogenizer. […] Incubation was stopped by rapid filtration of the incubation mixture over GF/B filters, pre-wetted with 0.1% polyethyleneamine, using a Filtermate196 harvester (Packard, Meriden, Conn.). Filters were rinsed extensively with ice-cold buffer and radioactivity on the filters was counted in a Topcount liquid scintillation counter (Packard, Meriden, Conn.). Data were expressed as cpm. Imipramine (at 1 μM final concentration) was used to determine the non-specific binding.
(§2) Data from assays in the presence of compound were calculated as a percentage of total binding measured in the absence of test compound. Inhibition curves, plotting percent of total binding versus the log value of the concentration of the test compound, were automatically generated, and sigmoidal inhibition curves were fitted using non-linear regression. The pIC50 values of test compounds were derived from individual curves.

A further experiment deals with T2, hα2C receptor (Homo sapiens, UniProt P18825).
T2 construct: expressed in transfected cells; host or cells: CHO cells, stably transfected; membrane preparation
T2 sequence (P18825 1-462): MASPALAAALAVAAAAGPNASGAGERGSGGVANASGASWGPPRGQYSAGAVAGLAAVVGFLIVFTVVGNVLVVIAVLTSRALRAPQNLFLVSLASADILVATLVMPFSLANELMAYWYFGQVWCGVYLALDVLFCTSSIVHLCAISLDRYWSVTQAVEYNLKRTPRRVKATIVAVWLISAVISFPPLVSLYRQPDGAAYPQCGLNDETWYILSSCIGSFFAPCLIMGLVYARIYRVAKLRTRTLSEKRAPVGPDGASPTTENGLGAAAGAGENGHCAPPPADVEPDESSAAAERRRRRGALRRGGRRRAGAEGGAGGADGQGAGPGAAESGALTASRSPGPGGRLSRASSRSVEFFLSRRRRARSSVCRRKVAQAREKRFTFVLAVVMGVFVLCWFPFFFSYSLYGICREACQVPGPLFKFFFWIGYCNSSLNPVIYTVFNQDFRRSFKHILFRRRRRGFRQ
Nature of the experiment: Radioligand binding experiment for α2C-adrenoceptor ([3H]raulwolscine, CHO cell membranes). Conditions: [3H]raulwolscine binding; for IC50: read-out: h-α2C pIC50 (converted). The procedure:
as §1
(§3) CHO cells, stabile transfected with human adrenergic-α2A and α2C receptor cDNA, were cultured in Dulbecco's Modified Eagle's Medium (DMEM)/Nutrient mixture Ham's F12 (ratio 1:1)(Gibco, Gent-Belgium) supplemented with 10% heat inactivated fetal calf serum (Life Technologies, Merelbeke-Belgium) and antibiotics (100 IU/ml penicillin G, 100 μg/ml streptomycin sulphate, 110 μg/ml pyruvic acid and 100 μg/ml L-glutamine). One day before collection, cells were induced with 5 mM sodiumbutyrate. Upon 80-90% of confluence, cells were scraped in phosphate buffered saline without Ca^2+ and Mg^2+ and collected by centrifugation at 1500×g for 10 minutes. The cells were homogenised in Tris-HCl 50 mM using an Ultraturrax homogenizer and centrifuged for 10 minutes at 23,500×g. The pellet was washed once by resuspension and rehomogenization and the final pellet was resuspended in Tris-HCl, divided in 1 ml aliquots and stored at −70° C.
(§4) Membranes were thawed and re-homogenized in incubation buffer (glycylglycine 25 mM, pH 8.0). […] Filters were rinsed extensively with ice-cold rinsing buffer (Tris-HCl 50 mM pH 7.4). Filter-bound radioactivity was determined by scintillation counting in a Topcount (Packard, Meriden, Conn.) and results were expressed as counts per minute (cpm). Non-specific binding was determined in the presence of 1 μM oxymetazoline for the hα2A receptor and 1 μM spiroxatrine for hα2C receptor.
as §2

The next experiment deals with T3, hα2A receptor (Homo sapiens, UniProt P08913).
T3 construct: expressed in transfected cells; host or cells: CHO cells, stably transfected; membrane preparation
T3 sequence (P08913 1-465): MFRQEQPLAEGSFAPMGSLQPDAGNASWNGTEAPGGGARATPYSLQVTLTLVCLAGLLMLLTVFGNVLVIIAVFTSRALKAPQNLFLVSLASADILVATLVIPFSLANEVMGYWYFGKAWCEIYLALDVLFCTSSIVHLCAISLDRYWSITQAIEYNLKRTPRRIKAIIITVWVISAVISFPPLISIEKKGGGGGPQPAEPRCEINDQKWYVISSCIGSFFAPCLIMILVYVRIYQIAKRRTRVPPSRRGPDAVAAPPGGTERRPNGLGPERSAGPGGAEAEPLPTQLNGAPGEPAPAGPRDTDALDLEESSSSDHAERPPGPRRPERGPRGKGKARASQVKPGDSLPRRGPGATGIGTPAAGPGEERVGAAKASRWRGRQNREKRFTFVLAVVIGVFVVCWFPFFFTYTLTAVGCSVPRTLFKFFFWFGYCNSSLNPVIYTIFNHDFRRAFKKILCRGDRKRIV
Nature of the experiment: Radioligand binding experiment for α2A-adrenoceptor ([3H]raulwolscine, CHO cell membranes). Conditions: [3H]raulwolscine binding; for IC50: read-out: h-α2A pIC50 (converted). As for the experimental part:
as §1, §3, §4, §2

The structures appear in SMILES notation.

T1 sequence (P31645 whole entry): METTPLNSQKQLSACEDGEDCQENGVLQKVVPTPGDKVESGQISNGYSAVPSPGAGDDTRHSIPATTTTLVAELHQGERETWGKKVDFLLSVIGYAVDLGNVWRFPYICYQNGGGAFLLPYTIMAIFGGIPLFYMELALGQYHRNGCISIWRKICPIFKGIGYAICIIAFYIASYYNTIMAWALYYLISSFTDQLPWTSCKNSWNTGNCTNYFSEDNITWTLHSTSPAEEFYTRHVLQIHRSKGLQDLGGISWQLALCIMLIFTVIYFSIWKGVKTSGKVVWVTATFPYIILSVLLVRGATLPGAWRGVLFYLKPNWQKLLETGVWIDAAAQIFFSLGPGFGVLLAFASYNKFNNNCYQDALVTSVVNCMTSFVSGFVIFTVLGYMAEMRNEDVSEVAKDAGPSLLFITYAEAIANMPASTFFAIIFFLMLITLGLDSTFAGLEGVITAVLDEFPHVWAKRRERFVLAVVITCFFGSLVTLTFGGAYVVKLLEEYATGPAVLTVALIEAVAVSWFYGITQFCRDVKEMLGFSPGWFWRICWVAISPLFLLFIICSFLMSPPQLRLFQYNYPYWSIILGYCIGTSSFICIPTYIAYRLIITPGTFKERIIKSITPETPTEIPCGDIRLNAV

On to `C/C(=C\c1ccccc1)CN1CCC(Nc2nccn(CC(=O)N3CCC(Cc4ccccc4)CC3)c2=O)CC1` [2-13], for which the results for the IC50 at 5HT-Transporter, at hα2C receptor and at hα2A receptor were 251 nM, 5.01 nM and 100 nM, respectively.
With `C/C(=C\c1ccccc1)CN1CCC(Nc2nccn(-c3cccc(NC(=O)c4cccc(F)c4)c3)c2=O)CC1` [1-76], the figures for the IC50 at 5HT-Transporter, on hα2C receptor and at hα2A receptor were 126 nM, 31.6 nM and 20 nM, respectively.
For the compound `COCCn1ccnc(NC2CCN(C/C(C)=C/c3ccccc3)CC2)c1=O` [3-5], the figures for the IC50 at hα2C receptor and at hα2A receptor were 39.8 nM and 316 nM, respectively.
With `C/C(=C\c1ccccc1)CN1CCC(Nc2nccn(Cc3ccc(Br)cc3)c2=O)CC1` [5-16], the IC50 on 5HT-Transporter is 501 nM; on hα2C receptor, 50.1 nM; at hα2A receptor it was 126 nM.
Regarding `C/C(=C\c1ccccc1)CN1CCC(Nc2nccn(CCOc3ccccc3)c2=O)CC1` [3-18], the IC50 on 5HT-Transporter was 158 nM; on hα2C receptor, 31.6 nM; at hα2A receptor, 126 nM.
Turning to `O=c1c(NC2CCN(C/C=C/c3ccccc3)CC2)nccn1Cc1ccc2ccccc2n1` [16-21], the values for the IC50 at 5HT-Transporter, on hα2C receptor and on hα2A receptor were 1000 nM, 126 nM and 501 nM, respectively.
For `C/C(=C\c1ccccc1)CN1CCC(Nc2nccn(CC(=O)NCc3cccnc3)c2=O)CC1` [1-141] the same measures were 1580 nM, 6.31 nM and 100 nM.
In the case of `C/C(=C\c1ccccc1)CN1CCC(Nc2nccn(Cc3cccc(C(F)(F)F)c3)c2=O)CC1` [5-22], the results for the IC50 at 5HT-Transporter, on hα2C receptor and at hα2A receptor were 794 nM, 50.1 nM and 126 nM, respectively.
As for `C/C(=C\c1ccccc1)CN1CCC(Nc2nccn(CC(=O)N(C)CCN(C)C)c2=O)CC1` [1-108], the figures for the IC50 on 5HT-Transporter, on hα2C receptor and at hα2A receptor were 6310 nM, 1.58 nM and 50.1 nM, respectively.
Take `C/C(=C\c1ccccc1)CN1CCC(Nc2nccn(-c3ccc(C(=O)N4CCN(C)CC4)cc3)c2=O)CC1` [2-21]: the IC50 at 5HT-Transporter is 501 nM; at hα2C receptor, 10 nM; at hα2A receptor, 100 nM.
As to `C/C(=C\c1ccccc1)CN1CCN(c2nccn(Cc3ccco3)c2=O)CC1` [13-1], the IC50 at 5HT-Transporter was 6310 nM; at hα2C receptor, 63.1 nM; at hα2A receptor, 50.1 nM.
Regarding `COCCN(C)C(=O)c1ccc(-n2ccnc(NC3CCN(C/C(C)=C/c4ccccc4)CC3)c2=O)cc1` [1-27], the IC50 on 5HT-Transporter was 501 nM; at hα2C receptor it was 2.51 nM; at hα2A receptor it was 31.6 nM.
For the compound `C/C(=C\c1ccccc1)CN1CCC(Nc2nccn(-c3cccc(N)c3)c2=O)CC1` [1-4], the IC50 was 3160 nM on 5HT-Transporter, 5.01 nM at hα2C receptor and 31.6 nM at hα2A receptor.
For the compound `C/C(=C\c1ccccc1)CN1CCC(Nc2nccn(Cc3ccc(CNC(=O)c4ccc(C#N)cc4)cc3)c2=O)CC1` [1-75], the IC50 on 5HT-Transporter was 200 nM; on hα2C receptor it was 50.1 nM; on hα2A receptor, 126 nM.
On to `C/C(=C\c1ccccc1)CN1CCC(Nc2nccn(-c3ccc(C(=O)NCCN4CCCCC4)cc3)c2=O)CC1` [1-140], for which the IC50 at 5HT-Transporter was 200 nM; on hα2C receptor, 3.98 nM; at hα2A receptor, 39.8 nM.
On to `C/C(=C\c1ccccc1)CN1CCC(Nc2nccn(CC(=O)N(CCCN3CCCC3)Cc3ccc(F)cc3)c2=O)CC1` [1-137], for which the IC50 on 5HT-Transporter is 1000 nM; at hα2C receptor it was 0.794 nM; at hα2A receptor, 12.6 nM.
On to `C/C(=C\c1ccccc1)CN1CCC(Nc2nccn(-c3ccc(N4CCOCC4)cc3)c2=O)CC1` [2-43], for which the figures for the IC50 at 5HT-Transporter, at hα2C receptor and at hα2A receptor were 3980 nM, 20 nM and 126 nM, respectively.
For `CN(C)C(=O)Cn1ccnc(NC2CCN(C/C=C/c3ccccc3)CC2)c1=O` [16-3], in that order: above 10000 nM, 316 nM and 2510 nM.
Consider `COC(=O)CN(C)Cc1cccc(-n2ccnc(NC3CCN(C/C(C)=C/c4ccccc4)CC3)c2=O)c1` [1-98], for which the “h-5HTT pIC50” value at 5HT-Transporter stood at 6.0. In addition, the “h-α2C pIC50” value at hα2C receptor is on record as 8.9. Besides, the “h-α2A pIC50” value at hα2A receptor is recorded as 7.5.
Consider `COc1cc(CNC(=O)NCc2ccc(Cn3ccnc(NC4CCN(C/C(C)=C/c5ccccc5)CC4)c3=O)cc2)cc(OC)c1` [1-126], for which the IC50 at 5HT-Transporter is 501 nM; on hα2C receptor, 39.8 nM; at hα2A receptor, 251 nM.
For the compound `C/C(=C\c1ccccc1)CN1CCC(Nc2nccn(Cc3ccccc3C(F)(F)F)c2=O)CC1` [5-21], the results for the IC50 on 5HT-Transporter, on hα2C receptor and on hα2A receptor were 398 nM, 25.1 nM and 158 nM, respectively.
With `C/C(=C\c1ccccc1)CN1CCC(Nc2nccn(-c3ccccn3)c2=O)CC1` [6-10], the IC50 on hα2C receptor is 3.16 nM; on hα2A receptor, 12.6 nM.
On to `C/C(=C\c1ccccc1)CN1CCC(Nc2nccn(CCN3CCOCC3)c2=O)CC1` [2-40], for which, on hα2C receptor, the IC50 is 25.1 nM.
On to `C/C(=C\c1ccccc1)CN1CCC(Nc2nccn(CCCN)c2=O)CC1` [1-2], for which the IC50 on hα2A receptor is 39.8 nM.
In the case of `C/C(=C\c1ccccc1)CN1CCC(Nc2nccn(CCCNCc3ccccc3)c2=O)CC1` [1-47], the IC50 on 5HT-Transporter is 501 nM; at hα2A receptor, 25.1 nM.
With `CN(C)CCCn1ccnc(NC2CCN(C/C=C/c3ccccc3)CC2)c1=O` [16-2], the IC50 on hα2C receptor is 63.1 nM; at hα2A receptor, 501 nM.
Turning to `C/C(=C\c1ccccc1)CN1CCC(Nc2nccn(CCN3CCCCC3)c2=O)CC1` [2-4], the IC50 was 2510 nM at 5HT-Transporter and 3.16 nM on hα2C receptor.
Regarding `C/C(=C\c1ccccc1)CN1CCC(Nc2ncc[nH]c2=O)CC1` [7-1], the IC50 on hα2C receptor is 31.6 nM; on hα2A receptor it was 100 nM.
Take `CC(=O)Cn1ccnc(NC2CCN(C/C(C)=C/c3ccccc3)CC2)c1=O` [7-7]: the results for the IC50 on hα2C receptor and at hα2A receptor were 12.6 nM and 50.1 nM, respectively.
For `C/C(=C\c1ccccc1)CN1CCC(Nc2nccn(CCCNCc3ccccc3)c2=O)CC1` [1-46], the IC50 is 316 nM at 5HT-Transporter and 39.8 nM on hα2A receptor.
With `C/C(=C\c1ccccc1)CN1CCN(c2nccn(CCCN3CCCC3=O)c2=O)CC1` [9-1], the IC50 is 251 nM on hα2C receptor and 2000 nM on hα2A receptor.
Take `C/C(=C\c1ccccc1)CN1CCC(Nc2nccn(-c3ccccn3)c2=O)CC1` [6-9]: the values for the IC50 at hα2C receptor and at hα2A receptor were 5.01 nM and 25.1 nM, respectively.
